These results are taken from US9427433B2, “Methods and compositions for enhancing fertility and/or inhibiting pregnancy failure and restoring glucose tolerance” (Queen's University at Kingston, priority 2011, dated 2016).

Format in all cases: in vivo, mouse
The test system of one test is pregnant diabetic mice. As to the kind of experiment: Fetal weight and intrauterine growth restriction (IUGR). The source says: FIGS. 14A and 14B show representative fetal weights (FIG. 14A) and percent of dams with intrauterine growth restricted (IUGR) pups (FIG. 14B) as measured on day 18.5 of pregnancy in the tacrolimus-treated diabetic mice versus vehicle-treated diabetic dams and those normoglycemic control cohorts. Whiskers in FIG. 14A represent the 10th and 90th percentiles of fetal body weight. Pups with weights below the 10th percentile of the normoglycemic control were considered intrauterine growth restricted (IUGR) as indicated by the shaded region. […] Numbers in brackets in FIG. 14A represents number of pups examined. “n” denotes number of dams. p<0.05.

Test [1] deals with uteri of diabetic NOD mice. Nature of the test: Uterodome maturation (scanning electron microscopy) and uterine LIF Western blot. The procedure:
Using ice-cold sterile glass Dounce-tissue homogenizer, uterine samples collected from virgin and pregnant normoglycemic and diabetic NOD mice were homogenized in 3 volumes of the provided 1× homogenization buffer [Cytosolic and Nuclear Extraction Buffer Kit (Biovision Inc., CA, USA)] as per the manufacturer's instructions. Homogenized samples were centrifuged at 4° C. for 5 minutes at 16,000 g. Supernatants, referred to as cytosolic extracts, were immediately transferred into a clean pre-chilled tube kept on ice. Extraction of nuclear proteins from the remaining insoluble (pellet) fractions followed using ice-cold Nuclear Extraction Buffer Mix according to the supplier's instructions. Protein content of the extracted cytosolic and nuclear fractions was determined by Bradford assay. Extracted protein samples were aliquoted and stored at −80° C. for further analyses.
Mouse uterine cytosolic and nuclear proteins were resolved on 6 or 8% (w/v) Tris-SDS denaturing polyacrylamide gels in 1× sample loading buffer (150 mM sodium chloride, 1.0% Triton X-100 and 50 mM Tris, pH 8.0). Urea (8M) was added to the Tris-based SDS-PAGE for the detection of MUC1. […] Background-corrected intensities of Western blot protein bands on scanned films were processed using Image J. Data were expressed as means±SEM. GAPDH (detected as a band of approximately 37 kDa) was used as an internal loading control. […]
In general terms: In western blotting, separated proteins are transferred to a membrane and probed.

Test [2] concerns diabetic and obese mice fed with 60% fat. As to the kind of experiment: Serum lipid profile. To be noted: 60% fat for 12 weeks; day 4.5 post-coitum. From the text:
FIGS. 22A to 22H show results of tacrolimus restoring normal lipid profile in all treated diabetic and obese mice fed with 60% fat for 12 weeks. Normal serum levels of Triglycerides (FIG. 22A and FIG. 22B), Total Cholesterol (FIG. 22C and FIG. 22D), High-density Lipoprotein (HDL) Cholesterol (FIG. 22E and FIG. 22F) and lipid Ratio representing the overall lipid profile (FIG. 22G and FIG. 22H) were obtained after the administration of tacrolimus to the diabetic and obese mice despite their continued high fat calorie intake. Blood samples were taken at day 4.5 post-coitum and values on the Y-axis are plotted as power of 10.

For test [3], the system named is 60% high fat fed NZO or DIO mice. As to the kind of experiment: Body weight gain and visceral fat in high fat fed mice. The method, then: Twenty NZO and DIO/B6 female mice were maintained on a high fat diet consisted of 60% kcal fat, 20% kcal protein and 20% kcal carbohydrate, with a total energy mass of 5.24 kcal/gm (D12492, Research Diets Inc.; […] Tacrolimus (Prograf (5 mg/ml), Astellas) was administered subcutaneously in a dose of 0.1 mg/kg q2d in 0.2 ml saline for three weeks to the obese and glucose intolerant NZO and DIO mice starting at the age of 10 weeks after which animals were mated to males of the same strain and pregnancy was dated from the morning of the positive detection of vaginal (copulation) plug. See FIG. 2. Facial (mandibular) venous blood samples were collected from treated animals at 24 and 48 hours between injections and at pregnancy days 0.5, 2.5, 4.5, 6.5, 8.5, 10.5, 12.5, 14.5, 16.5 and 18.5, respectively, following a standard procedure for facial bleed in mice (Golde et al. Lab Anim (NY) 2005 34:39-43). A lean cohort of control B6 and BALBc mice was fed with a regular 10 kcal % control chow diet containing the same protein content as the high fat diet with a total energy mass of 3.1 kcal/g (D12450Bi, Cedarlane, Ontario).

For `C=CC[C@@H]1/C=C(\C)C[C@H](C)C[C@H](OC)[C@H]2O[C@@](O)(C(=O)C(=O)N3CCCC[C@H]3C(=O)O[C@H](/C(C)=C/[C@@H]3CC[C@@H](O)[C@H](OC)C3)[C@H](C)[C@@H](O)CC1=O)[C@H](C)C[C@@H]2OC` [tacrolimus], the “treated pregnant diabetic mice in which IUGR development was inhibited” value with pregnant diabetic mice (0.1 mg/kg s.c. every other day, weeks 9-11 of age) stood at 88%. Further, the fetal body weight entry with pregnant diabetic mice (day 18.5 of pregnancy, 0.1 mg/kg s.c. every other day, weeks 9-11 of age, p<0.05) is “significantly improved fetal body weight”. In addition, in the test with pregnant diabetic mice (short term administration), the “pups born to diabetic dams rescued from inflammatory-mediated growth restriction” value worked out at 88%. In addition, the “uterine LIF protein expression (Western blot)” value in test [1] (days 4.5 and 6.5 postcoitum) is listed as “induced LIF protein expression”. Further, the “maturation of uterodomes at implantation sites” value in test [1] (pregnancy day 4.5) is recorded as “inducing maturation of uterodomes”. In addition, the “lipid profile (triglycerides, total cholesterol, HDL cholesterol, lipid ratio)” value in test [2] is “restored normal lipid profile”. The body weight gain entry in test [3] (after the initial administration, FIG. 19B) is on record as “prevented body weight gain for seven consecutive weeks”. The “mass of the visceral fat” value in test [3] (all treated mice) is given as “significantly lower”.
